Tested on: 415267-285-R-J2-PDC complex spheroid viability
Test: Anticancer human tumor 415267-285-R-J2-PDC patient-derived breast carcinoma cell line growth inhibition [POLQ]
Conditions: for IC50: curve of first compound; for viability, T/C: stronger effect = lower value
Outline: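 Patient-derived tumour cells were co-cultured with HUVEC and mesenchymal stem cells as multicellular spheroids at 37 °C. They were treated with POLQ inhibitors (novobiocin, ART-558, RP6685) alone or combined with other agents. Top concentrations were at or near clinical Cmax (otherwise 10 microM; SN-38 at 1 microM), decreasing in half-log steps.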

[1] = second compound 0.0316 µM, first compound 0.0316 µM
[2] = second compound 0.0316 µM, first compound 0.1 µM
[3] = second compound 0.1 µM, first compound 0.0316 µM
[4] = second compound 0.1 µM, first compound 0.1 µM
[5] = second compound 0.316 µM, first compound 0.0316 µM
[6] = second compound 0.316 µM, first compound 0.1 µM
[7] = second compound 1 µM, first compound 0.0316 µM
[8] = second compound 1 µM, first compound 0.1 µM
[9] = second compound 3.16 µM, first compound 0.0316 µM
[10] = second compound 3.16 µM, first compound 0.1 µM
[11] = second compound 10 µM, first compound 0.0316 µM
[12] = second compound 10 µM, first compound 0.1 µM
[13] = second compound 0.0316 µM, first compound 0.316 µM
[14] = second compound 0.0316 µM, first compound 1 µM
[15] = second compound 0.0316 µM, first compound 3.16 µM
[16] = second compound 0.0316 µM, first compound 10 µM
[17] = second compound 0.1 µM, first compound 0.316 µM
[18] = second compound 0.1 µM, first compound 1 µM
[19] = second compound 0.1 µM, first compound 3.16 µM
[20] = second compound 0.1 µM, first compound 10 µM
[21] = second compound 0.316 µM, first compound 0.316 µM
[22] = second compound 0.316 µM, first compound 1 µM
[23] = second compound 0.316 µM, first compound 3.16 µM
[24] = second compound 0.316 µM, first compound 10 µM
[25] = second compound 1 µM, first compound 0.316 µM
[26] = second compound 1 µM, first compound 1 µM
[27] = second compound 1 µM, first compound 3.16 µM
[28] = second compound 1 µM, first compound 10 µM
[29] = second compound 3.16 µM, first compound 0.316 µM
[30] = second compound 3.16 µM, first compound 1 µM
[31] = second compound 3.16 µM, first compound 3.16 µM
[32] = second compound 3.16 µM, first compound 10 µM
[33] = second compound 10 µM, first compound 0.316 µM
[34] = second compound 10 µM, first compound 1 µM
[35] = second compound 10 µM, first compound 3.16 µM
[36] = second compound 10 µM, first compound 10 µM
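Note: spheroids exposed to compounds for one week before readout.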
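Throughout, for viability, T/C: luminescence used as stand-in measure of viable cells; 100% = DMSO vehicle control viability.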

CC[C@@]1(O)C(=O)OCc2c1cc1n(c2=O)Cc2cc3c(CN(C)C)c(O)ccc3nc2-1 + Nc1ccc(C#CCN(C(=O)Cc2ncc(C(F)(F)F)cc2C(F)(F)F)c2ccc(F)cc2)nn1
IC50 (second compound 0.0316 µM): 0.0242 µM | IC50 (second compound 0.1 µM): 0.0232 µM | IC50 (second compound 0.316 µM): 0.0258 µM | IC50 (second compound 1 µM): 0.0243 µM | IC50 (second compound 3.16 µM): 0.0225 µM | IC50 (second compound 10 µM): 0.0238 µM | viability, T/C (second compound 0.0316 µM, first compound 0.000316 µM): 102% | viability, T/C (second compound 0.0316 µM, first compound 0.001 µM): 101% | viability, T/C (second compound 0.0316 µM, first compound 0.00316 µM): 98.6% | viability, T/C (second compound 0.0316 µM, first compound 0.01 µM): 93.3% | viability, T/C [1]: 37% | viability, T/C [2]: 8.63% | viability, T/C (second compound 0.1 µM, first compound 0.000316 µM): 116% | viability, T/C (second compound 0.1 µM, first compound 0.001 µM): 102% | viability, T/C (second compound 0.1 µM, first compound 0.00316 µM): 96.8% | viability, T/C (second compound 0.1 µM, first compound 0.01 µM): 98.2% | viability, T/C [3]: 32.5% | viability, T/C [4]: 8.01% | viability, T/C (second compound 0.316 µM, first compound 0.000316 µM): 115% | viability, T/C (second compound 0.316 µM, first compound 0.001 µM): 98.2% | viability, T/C (second compound 0.316 µM, first compound 0.00316 µM): 94.2% | viability, T/C (second compound 0.316 µM, first compound 0.01 µM): 105% | viability, T/C [5]: 38.5% | viability, T/C [6]: 5.29% | viability, T/C (second compound 1 µM, first compound 0.000316 µM): 120% | viability, T/C (second compound 1 µM, first compound 0.001 µM): 96.2% | viability, T/C (second compound 1 µM, first compound 0.00316 µM): 98.8% | viability, T/C (second compound 1 µM, first compound 0.01 µM): 101% | viability, T/C [7]: 33.4% | viability, T/C [8]: 7.54% | viability, T/C (second compound 3.16 µM, first compound 0.000316 µM): 107% | viability, T/C (second compound 3.16 µM, first compound 0.001 µM): 103% | viability, T/C (second compound 3.16 µM, first compound 0.00316 µM): 97.6% | viability, T/C (second compound 3.16 µM, first compound 0.01 µM): 115% | viability, T/C [9]: 26.7% | viability, T/C [10]: 9.06% | viability, T/C (second compound 10 µM, first compound 0.000316 µM): 113% | viability, T/C (second compound 10 µM, first compound 0.001 µM): 106% | viability, T/C (second compound 10 µM, first compound 0.00316 µM): 98.9% | viability, T/C (second compound 10 µM, first compound 0.01 µM): 104% | viability, T/C [11]: 32.2% | viability, T/C [12]: 8.26%

COc1cc(C2c3cc4c(cc3C(OC3OC5COC(C)OC5C(O)C3O)C3COC(=O)C23)OCO4)cc(OC)c1O (stereo not drawn) + Nc1ccc(C#CCN(C(=O)Cc2ncc(C(F)(F)F)cc2C(F)(F)F)c2ccc(F)cc2)nn1
IC50 (second compound 0.0316 µM): 0.193 µM | IC50 (second compound 0.1 µM): 0.193 µM | IC50 (second compound 0.316 µM): 0.194 µM | IC50 (second compound 1 µM): 0.169 µM | IC50 (second compound 3.16 µM): 0.175 µM | IC50 (second compound 10 µM): 0.158 µM | viability, T/C [1]: 93.4% | viability, T/C [2]: 91.5% | viability, T/C [13]: 19% | viability, T/C [14]: 6.3% | viability, T/C [15]: 4.79% | viability, T/C [16]: 4.39% | viability, T/C [3]: 106% | viability, T/C [4]: 102% | viability, T/C [17]: 11.6% | viability, T/C [18]: 6.09% | viability, T/C [19]: 4.34% | viability, T/C [20]: 4.16% | viability, T/C [5]: 107% | viability, T/C [6]: 97.8% | viability, T/C [21]: 14.4% | viability, T/C [22]: 6.8% | viability, T/C [23]: 5.09% | viability, T/C [24]: 4.49% | viability, T/C [7]: 106% | viability, T/C [8]: 79.4% | viability, T/C [25]: 15% | viability, T/C [26]: 6.3% | viability, T/C [27]: 4.91% | viability, T/C [28]: 4.43% | viability, T/C [9]: 119% | viability, T/C [10]: 84.3% | viability, T/C [29]: 13.4% | viability, T/C [30]: 6.83% | viability, T/C [31]: 4.94% | viability, T/C [32]: 4.27% | viability, T/C [11]: 103% | viability, T/C [12]: 72.5% | viability, T/C [33]: 16.2% | viability, T/C [34]: 6.36% | viability, T/C [35]: 4.59% | viability, T/C [36]: 4.33%

Nc1ccn(C2OC(CO)C(O)C2(F)F)c(=O)n1 (stereo not drawn) + Nc1ccc(C#CCN(C(=O)Cc2ncc(C(F)(F)F)cc2C(F)(F)F)c2ccc(F)cc2)nn1
IC50 (second compound 0.0316 µM): < 0.0316 µM | IC50 (second compound 0.1 µM): < 0.0316 µM | IC50 (second compound 0.316 µM): < 0.0316 µM | IC50 (second compound 1 µM): < 0.0316 µM | IC50 (second compound 3.16 µM): < 0.0316 µM | IC50 (second compound 10 µM): < 0.0316 µM | viability, T/C [1]: 31.7% | viability, T/C [2]: 6.95% | viability, T/C [13]: 5.45% | viability, T/C [14]: 4.21% | viability, T/C [15]: 5.5% | viability, T/C [16]: 4.63% | viability, T/C [3]: 33.3% | viability, T/C [4]: 7.84% | viability, T/C [17]: 5.21% | viability, T/C [18]: 4.26% | viability, T/C [19]: 4.99% | viability, T/C [20]: 4.24% | viability, T/C [5]: 42.2% | viability, T/C [6]: 6.2% | viability, T/C [21]: 4.82% | viability, T/C [22]: 3.94% | viability, T/C [23]: 6.45% | viability, T/C [24]: 4.74% | viability, T/C [7]: 25.8% | viability, T/C [8]: 6.29% | viability, T/C [25]: 5.24% | viability, T/C [26]: 5.68% | viability, T/C [27]: 5.32% | viability, T/C [28]: 5.07% | viability, T/C [9]: 17.7% | viability, T/C [10]: 6.56% | viability, T/C [29]: 5.45% | viability, T/C [30]: 5.13% | viability, T/C [31]: 5.35% | viability, T/C [32]: 5.11% | viability, T/C [11]: 14.4% | viability, T/C [12]: 6.3% | viability, T/C [33]: 5.2% | viability, T/C [34]: 4.36% | viability, T/C [35]: 4.56% | viability, T/C [36]: 4.89%

O=c1[nH]cc(F)c(=O)[nH]1 + Nc1ccc(C#CCN(C(=O)Cc2ncc(C(F)(F)F)cc2C(F)(F)F)c2ccc(F)cc2)nn1
IC50 (second compound 0.0316 µM): 0.435 µM | IC50 (second compound 0.1 µM): 0.262 µM | IC50 (second compound 0.316 µM): 0.283 µM | IC50 (second compound 1 µM): 0.307 µM | IC50 (second compound 3.16 µM): 0.268 µM | IC50 (second compound 10 µM): 0.309 µM | viability, T/C [1]: 101% | viability, T/C [2]: 93% | viability, T/C [13]: 57.5% | viability, T/C [14]: 21.4% | viability, T/C [15]: 29.9% | viability, T/C [16]: 40.1% | viability, T/C [3]: 86.4% | viability, T/C [4]: 85.5% | viability, T/C [17]: 43% | viability, T/C [18]: 20.9% | viability, T/C [19]: 30% | viability, T/C [20]: 38.5% | viability, T/C [5]: 93.6% | viability, T/C [6]: 97% | viability, T/C [21]: 45.1% | viability, T/C [22]: 24.4% | viability, T/C [23]: 24.6% | viability, T/C [24]: 46.4% | viability, T/C [7]: 97% | viability, T/C [8]: 92.7% | viability, T/C [25]: 49.1% | viability, T/C [26]: 27.1% | viability, T/C [27]: 30.4% | viability, T/C [28]: 35.4% | viability, T/C [9]: 106% | viability, T/C [10]: 90.7% | viability, T/C [29]: 44.5% | viability, T/C [30]: 22.4% | viability, T/C [31]: 24.1% | viability, T/C [32]: 42.3% | viability, T/C [11]: 113% | viability, T/C [12]: 87% | viability, T/C [33]: 52.5% | viability, T/C [34]: 26.5% | viability, T/C [35]: 26.6% | viability, T/C [36]: 39%

Source: PubChem BioAssay AID1963847 (Molecular Pharmacology Branch, DTP, NCI, 2024)
